# Test results taken from US12636368B2, “Ionizable lipids for nucleic acid delivery” (Global Life Sciences Solutions Canada ULC, priority 2019, dated 2026).
# Like-named read-outs stand apart in the source and are kept apart here.
# Legend:
# [1] = system: isolated primary human T cells; test: GFP mRNA-LNP transfection of primary human T cells, flow cytometry; format: cell-based
# Description: Reagents were from Stemcell Technologies unless otherwise stated. Tcells were isolated from a single donor. At 48 h following lipid particle mRNA exposure, the treated T cells were harvested by transferring the cell suspensions to pre-labeled 1.5 mL tubes and centrifuged 300×g at 4 degrees C. for 10 minutes. Supernatant was removed and the pellet resuspended in PBS. An amount of 0.5 ul of BD Horizon™ Fixable Viability Stain 575V™ (BD Biosciences), was added, and the mixture incubated in the dark for 10 minutes at RT. This stain binds to amines.
# The cells were centrifuged again as before, then washed twice with 1 mL of stain buffer (BSA, BD Pharminigen), and the washed pellet was diluted in 100 μl BSA. The following antibodies were added to each tube of treated cells in 2 μl volumes: CD25, CD8, CD4, (PerCP-Cy™ 5.5 Mouse Anti Human CD25, BV786 Mouse Anti-Human CD8 Clone RPA-T8, APC-Cy™7 Mouse Anti-Human CD4 Clone SK3 (all from BD Pharmingen) with the exception of the controls: in the eGFP only sample and viability control, no antibody was added. In the single stain compensation tubes, only one antibody per tube was added.
# The tubes were incubated at 4 degrees C. for 30 min, whereupon […] of stain buffer was added, and the cells were centrifuged again. Cells were washed once with 1 mL of stain buffer and spun down again as in step one. Cell pellets were resuspended in 1 mL of stain buffer and added to pre-labeled flow tubes with cell strainer caps (Corning Falcon). […]
# GFP MFI was measured by flow cytometry 48 hours after LNP addition. T cells were isolated from whole blood using a negative isolation procedure (EasySep™ Human T Cell Isolation Kit, Stemcell Technologies). T cells were dosed with mRNA-LNPs 3 days after activation with 500 ng of encapsulated mRNA per 125,000 cells. The LNP were CT10 compositions with an N/P of 8. Transfection efficiency (upper graph) and MFI (lower graph) were measured by flow cytometry 48 h after LNP addition.
# primary human T cells = test: EPO ELISA after EPO mRNA LNP treatment of primary human T cells; format: cell-based; details: Table 5; for EPO concentration (mIU/mL): EPO mRNA LNPs, 2 pg mRNA per 500,000 cells, N/P 10, 48 hours
# Description: Reagents were acquired from Quantikine, Minneapolis, MN. The assay was performed as directed on the Quantikine® IVD® ELISA Human Erythropoietin Immunoassay protocol. REF DEP00 Package Insert. Briefly; primary human T cells were isolated from fresh whole blood using a negative selection protocol and activated using a triple activator. Seven days post-activation, T cells were dosed with mRNA LNPs encoding EPO at 2 pg mRNA per 500,000 cells and N/P 10. Quantikine® Human Serum Controls were used. After 48 hours of treatment with mRNA LNPs the T cells were harvested and lysed for cytosolic EPO and media supernatant was sampled for secreted EPO. Table 5 includes the data of FIG. 6 as well as the fold increase of EPO for PNI 76 and 121 versus MC3.
# [2] = Nucleic acid encapsulation efficiency by RiboGreen assay; format: physicochemical
# Description: Messenger RNA or plasmid NAT was diluted using sodium acetate buffer to the required concentration. Lipid nucleic acid particle samples were then prepared by running both fluids using the NanoAssemblr® Spark instrument. […] The lipid nucleic acid particles made in the instrument were immediately diluted down with 48 μL Ca and Mg free 1×PBS at pH 7.4 in the aqueous output well. These nucleic acid lipid particles were immediately collected into microcentrifuge tubes containing 96 μL of Ca and Mg free 1×PBS at pH 7.4. Encapsulation efficiency was measured by a modified Ribogreen™ assay (Quanti-iT RiboGreen™ RNA assay kit, Fisher). Observed particle attributes were generally sized from 60-200 nm for mRNA, depending on lipid composition and method of production.
# (§1) Physical characteristics of lipid nanoparticle (LNP) compositions comprising compounds according to Formula (I) and that were manufactured on the NanoAssemblr® Spark and Benchtop, are shown in Tables 6 and 7 below. Size, size variation of the LNP (PDI), encapsulation efficiency, and pKa are shown. The physical characteristics of these LNP are important from a standpoint of stability, biodistribution, and cell membrane crossing. There was good encapsulation in all the formulations, with polydispersity (PDI) under 0.3. Size and PDI were measured using dynamic light scattering techniques, and nucleic acid encapsulation efficiency was calculated from a modified Quant-iT RiboGreen RNA assay.
# [3] = TNS assay, surface pKa of lipid nanoparticles; format: physicochemical
# Description: In embodiments of the invention, the experimental pKa of formulated lipid nanoparticles comprising lipids in Table 1 is calculated using the 2-(p-toluidinyl)naphthalene-6-sulfonic acid (TNS) assay. The procedure for the TNS assay is described in Example 25.
# The pKa of each cationic lipid was determined in lipid nanoparticles using an assay based on fluorescence of 6-(p-Toluidino)-2-naphthalenesulfonic acid sodium salt (TNS, Sigma Aldrich), which is a fluorescent probe for the conformational state of proteins5. Empty lipid nanoparticles comprising ionizable lipid in LM02 composition in distilled water at a concentration of 3.125 mM total lipid are formulated using NanoAssemblr® Spark™, and were then was characterized for LNP quality on the Zetasizer™ using a 30× dilution with 1×PBS in the low volume cuvette. Lipid nanoparticles were further diluted 4× using distilled water to 0.781 mM total lipid. TNS was prepared as a 25 μM stock solution in distilled water. Then 6.4 μL of diluted LNP samples of 0.781 mM total lipid were mixed with 10 μL of diluted TNS to a final volume of 250 μL with buffer containing 10 mM HEPES, 10 mM MES, 10 mM NH4OAc and 130 mM NaCl where the pH ranged from 3 to 9 in 0.5 pH increments.
# Samples were mixed thoroughly, and the fluorescence intensity was measured at room temperature in a BioTek™ Synergy™ H1 Hybrid Multi-Mode Monochromator™ Fluorescence Microplate Reader using excitation and emission wavelengths of 321 nm and 445 nm respectively. A sigmoidal best fit analysis was applied to the fluorescence data using GraphPad Prism™ software, and the pKa was measured as the pH at half-maximal fluorescence intensity.
# human T cells = test: eGFP ELISA after eGFP mRNA LNP treatment of human T cells; format: cell-based; details: Table 4
# Description: Reagents were acquired from Abcam, Cambridge, UK unless otherwise stated. […] The assay was performed as directed by the eGFP SimpleStep ELISA® Kit protocol. Briefly; frozen human T cells, previously isolated from fresh human whole blood using a negative selection protocol, were thawed and activated using a triple activator. […] After 48 hours of treatment with mRNA LNPs the T cells were harvested and lysed for total eGFP content.
# In order to expose the isolated and activated T cells (Day 0) to the formulated mRNA, 2 ug of CleanCap™ eGFP (Trilink Biotechnologies, San Diego, CA) mRNA-containing LNP was added to 500,000 T cells in 1 mL of complete T cell media, with 1 ug/mL of Recombinant Human ApoE4 (“ApoE”) (Peprotech Inc., Montreal, Canada).
# Frozen human T cells, previously isolated from fresh human whole blood using a negative selection protocol, were thawed and activated using a triple activator. At 10 days post-activation, T cells were dosed with CT10 mRNA LNPs LNP comprising DLin-MC3-DMA, PNI 76, PNI 119, PNI 120, PNI 121, and PNI 122 encoding eGFP at 2 pg mRNA per 500,000 cells and N/P 10. Protein expression was measured after 48 hours by eGFP ELISA.
# [4] = LNP size and PDI by dynamic light scattering; format: physicochemical
# Description: After the lipid particles were made as described supra, particle size (hydrodynamic diameter of the particles) was determined by Dynamic Light Scattering (DLS) using a ZetaSizer™ Nano ZS™ (Malvern Instruments, UK). He/Ne laser tuned to 633 nm wavelength was used as the light source. Data were measured from the scattered intensity data conducted in backscattering detection mode (measurement angle=173). Measurements were an average of 10 runs of two cycles each per sample. Z-Average size was reported as the particle size, and is defined as the harmonic intensity averaged particle diameter.
# as §1
# C57BL/6 mice = test: OVA mRNA LNP intramuscular immunization, anti OVA-IgG ELISA; format: in vivo; details: i.m., days 1 and 10
# Description: LNP with the composition LM02b were used to encapsulate OVA antigen encoded CleanCap® OVA WT mRNA [TriLink L7610] or CleanCap® OVA 5-moU mRNA [TriLink L7210]. A lipid mixture of Ionizable lipid, DOPE, Cholesterol, and PEG-DMG2000, all in ethanol, was mixed with a low PH buffered solution of OVA mRNA at an N/P ratio of 8 using a NanoAssemblr® Ignite™ microfluidic mixer. The LNP were filtered using the Amicon™ ultra filtration technique and characterized for Size, PDI and Encapsulation Efficiency. Size and PDI were measured using dynamic light scattering techniques, and nucleic acid encapsulation efficiency was calculated from the Quant-iT RiboGreen RNA assay. […]
# All animals were handled according to the Institutional Animal Care and Use Committee ethics protocols. […] Aliquots of serum samples were thawed and analyzed at appropriate dilutions for OVA expression and for IgG measurements using standard ELISA techniques.
# Anti OVA-IgG ELISA of serum samples: Sera from the immunized mice were collected at 2 weeks post second immunization. OVA-specific production of IgG in response to OVA-encoded mRNA in various LNPs were measured by ELISA as described supra. […] After 30 minutes of incubation, a stop solution of 2 N sulphuric acid was added and a plate reader was used to determine absorbance at 450 nm. […]
# [5] = Table 7, EPO mRNA LNPs, LM02, N/P 6
# [6] = Table 1, formulated lipid nanoparticles, TNS assay, read-out: Exp. pKa
# [7] = Table 6, GFP-encoded LNPs, CT10, N/P 8
smiles,measurement,setting,value
CCCCCCCCCCCCCC(=O)O[C@H]1COC([C@@H](COC(=O)CCCN(C)C)OC(=O)CCCCCCCCCCCCC)[C@@H]1OC(=O)CCCCCCCCCCCCC (stereo partly shown) [PNI 76],transfection efficiency compared with MC3,"[1]; FIG. 1, eGFP mRNA LNP, CT10, N/P 10, 48 hours after treatment",equal transfection efficiency as MC3
same,% eGFP +,"[1]; Table 4, transfection efficiency, eGFP mRNA LNPs, CT10, N/P 8",62.35%
same,EPO Fold Change Relative to MC3,primary human T cells,0.93
same,EPO concentration (mIU/mL),primary human T cells,507.3 mIU/mL
same,Encapsulation Efficiency (%),[2]; [5],88.9%
same,pKa,[3]; [6],6.42
same,pKa,"[3]; Table 4, determined by TNS assay, read-out: pKa Ex.",6.42
same,pKa,"[3]; Table 5, read-out: pKa Exp.",6.42
same,pKa,"[3]; Table 8, read-out: Exp.pKa",6.4
same,Fold Change Relative to MC3,human T cells; eGFP (pg) relative to MC3,1.095
same,eGFP,"human T cells; quantity of expressed eGFP, eGFP mRNA LNPs, CT10",1502.0 pg
same,"Diameter (Z. ave, nm)",[4]; [5],83.1 nm
same,Polydispersity Index (PDI),[4]; [5],0.16
CCCCC/C=C\C/C=C\CCCCCCCC(=O)O[C@@H]1[C@@H](OC(=O)CCCCCCC/C=C\C/C=C\CCCCC)CO[C@@H]1COC(=O)C1CCN(C)CC1 (racemic) [PNI 325],Encapsulation Efficiency (%),[2]; [7],51.1%
same,Encapsulation Efficiency (%),[2]; [5],95.9%
same,pKa,[3]; [6],6.45
same,pKa,"[3]; Table 8, read-out: Exp.pKa",6.45
same,immune response to OVA antigen loaded LNPs,C57BL/6 mice,effectively elicit an immune response similar to OVA antigen
same,"Diameter (Z. ave, nm)",[4]; [7],121.5 nm
same,Polydispersity Index (PDI),[4]; [7],0.39
same,"Diameter (Z. ave, nm)",[4]; [5],65.3 nm
same,Polydispersity Index (PDI),[4]; [5],0.09
"CCCCC/C=C\C/C=C\CCCCCCCCC(CCCCCCCC/C=C\C/C=C\CCCCC)OC(=O)CCCN(C)C [MC3, DLin-MC3-DMA, reference compound]",EPO Fold Change Relative to MC3,primary human T cells,1.0
same,EPO concentration (mIU/mL),primary human T cells,545.2 mIU/mL
same,Encapsulation Efficiency (%),[2]; [7],88.6%
same,Encapsulation Efficiency (%),[2]; [5],98.8%
same,pKa Exp.,[3]; Table 5,5.99
same,"Diameter (Z. ave, nm)",[4]; [7],77.2 nm
same,Polydispersity Index (PDI),[4]; [7],0.11
same,"Diameter (Z. ave, nm)",[4]; [5],65.1 nm
same,Polydispersity Index (PDI),[4]; [5],0.04
